How the values were obtained:
Conditions in all cases: 250 g/ha, evaluated after 13 days, five-point scale
[1] = test system: Amaranthus retoflexus (AMARE); assay: Post-emergence herbicidal glasshouse test; type: in vivo
AMAPA [2] = assay: Post-emergence herbicidal glasshouse test; type: in vivo, Amaranthus tuberculatus
[3] = test system: Echinochloa crus-galli (ECHCG); assay: Post-emergence herbicidal glasshouse test; type: in vivo
[4] = test system: Ipomoea hederacea (IPOHE); assay: Post-emergence herbicidal glasshouse test; type: in vivo
[5] = test system: Amaranthus retoflexus (AMARE); assay: Pre-emergence herbicidal glasshouse test; type: in vivo
AMAPA [6] = assay: Pre-emergence herbicidal glasshouse test; type: in vivo, Amaranthus tuberculatus
[7] = test system: Echinochloa crus-galli (ECHCG); assay: Pre-emergence herbicidal glasshouse test; type: in vivo
[8] = test system: Ipomoea hederacea (IPOHE); assay: Pre-emergence herbicidal glasshouse test; type: in vivo

Row | Structure (SMILES) | percentage damage caused to the plant, AMARE [1] | percentage damage caused to the plant, AMAPA (AMAPA [2]) | percentage damage caused to the plant, ECHCG [3] | percentage damage caused to the plant, IPOHE [4] | percentage damage caused to the plant, AMARE [5] | percentage damage caused to the plant, AMAPA (AMAPA [6]) | percentage damage caused to the plant, ECHCG [7] | percentage damage caused to the plant, IPOHE [8]
1 | FC(F)(F)c1ccc2c(Oc3ncc(Cl)cn3)ccc(Br)c2n1 [Compound 1.032] | 2 (2=21-40%) | 2 (2=21-40%) | 1 (1=0-20%) | 1 (1=0-20%) | 1 (1=0-20%) | 1 (1=0-20%) | 1 (1=0-20%) | 1 (1=0-20%)
2 | FC(F)(Cl)c1ncc2c(Oc3ncc(Br)cn3)cccc2n1 [Compound 1.055, 5-(5-bromopyrimidin-2-yl)oxy-2-[chloro(difluoro)methyl]quinazoline] | 2 (2=21-40%) | 3 (3=41-60%) | 2 (2=21-40%) | 2 (2=21-40%) | 5 (5=81-100%) | 5 (5=81-100%) | 4 (4=61-80%) | 2 (2=21-40%)
3 | Cc1cnc(Oc2ccc(C)c3nc(C(F)(F)Cl)ncc23)nc1 [Compound 1.036] | 2 (2=21-40%) | 3 (3=41-60%) | 1 (1=0-20%) | 1 (1=0-20%) | 4 (4=61-80%) | 3 (3=41-60%) | 1 (1=0-20%) | 1 (1=0-20%)
4 | N#Cc1ccc(Oc2ncc(Cl)cn2)c2cnc(C(F)(F)F)nc12 [Compound 1.065] | 1 (1=0-20%) | 1 (1=0-20%) | 1 (1=0-20%) | 2 (2=21-40%) | 1 (1=0-20%) | 1 (1=0-20%) | 1 (1=0-20%) | 1 (1=0-20%)
5 | Cc1cnc(Oc2cccc3nc(C(F)(F)Cl)ncc23)nc1 [Compound 1.056, 2-[chloro(difluoro)methyl]-5-(5-methylpyrimidin-2-yl)oxy-quinazoline] | 2 (2=21-40%) | 4 (4=61-80%) | 3 (3=41-60%) | 4 (4=61-80%) | 5 (5=81-100%) | 5 (5=81-100%) | 5 (5=81-100%) | 5 (5=81-100%)
6 | Cc1cc(C(F)(F)F)nc2cccc(Oc3ncc(Cl)cc3F)c12 [Compound 1.066] | 1 (1=0-20%) | 1 (1=0-20%) | 1 (1=0-20%) | 1 (1=0-20%) | 1 (1=0-20%) | 1 (1=0-20%) | 1 (1=0-20%) | 1 (1=0-20%)
7 | Cc1ccc(Oc2ncc(Br)cn2)c2ccc(C(F)(F)F)nc12 [Compound 1.026] | 2 (2=21-40%) | 2 (2=21-40%) | 1 (1=0-20%) | 1 (1=0-20%) | 1 (1=0-20%) | 1 (1=0-20%) | 1 (1=0-20%) | 1 (1=0-20%)
8 | FC(F)c1ncc2c(Oc3ncc(Cl)cn3)ccc(Cl)c2n1 [Compound 1.054] | 2 (2=21-40%) | 2 (2=21-40%) | 1 (1=0-20%) | 1 (1=0-20%) | 5 (5=81-100%) | 5 (5=81-100%) | 2 (2=21-40%) | 1 (1=0-20%)
9 | Cc1ccc(Oc2ncc(F)cn2)c2cnc(C(F)F)nc12 [Compound 1.027] | 2 (2=21-40%) | 2 (2=21-40%) | 1 (1=0-20%) | 2 (2=21-40%) | 2 (2=21-40%) | 2 (2=21-40%) | 1 (1=0-20%) | 1 (1=0-20%)
10 | Cc1cnc(Oc2ccc(C)c3nc(C(F)(F)F)ccc23)nc1 [Compound 1.025] | 2 (2=21-40%) | 3 (3=41-60%) | 1 (1=0-20%) | 2 (2=21-40%) | 1 (1=0-20%) | 1 (1=0-20%) | 1 (1=0-20%) | 1 (1=0-20%)
11 | Cc1ccc(Oc2ncc(Cl)cn2)c2ccc(C(F)(F)F)nc12 [Compound 1.035] | 3 (3=41-60%) | 3 (3=41-60%) | 1 (1=0-20%) | 2 (2=21-40%) | 2 (2=21-40%) | 2 (2=21-40%) | 1 (1=0-20%) | 1 (1=0-20%)
12 | COc1ncc2c(Oc3ncc(Br)cn3)ccc(Br)c2n1 [Compound 1.031] | 1 (1=0-20%) | 1 (1=0-20%) | 1 (1=0-20%) | 1 (1=0-20%) | 1 (1=0-20%) | 1 (1=0-20%) | 1 (1=0-20%) | 1 (1=0-20%)
13 | Cc1nc(C(F)(F)Cl)nc2cccc(Oc3ncc(F)cn3)c12 [Compound 1.038] | 4 (4=61-80%) | 5 (5=81-100%) | 3 (3=41-60%) | 3 (3=41-60%) | 5 (5=81-100%) | 5 (5=81-100%) | 4 (4=61-80%) | 5 (5=81-100%)
14 | Fc1cnc(Oc2ccc(Cl)c3nc(C(F)F)ncc23)nc1 [Compound 1.046] | 2 (2=21-40%) | 1 (1=0-20%) | 1 (1=0-20%) | 2 (2=21-40%) | 5 (5=81-100%) | 4 (4=61-80%) | 1 (1=0-20%) | 1 (1=0-20%)
15 | Cc1nc(C(F)F)nc2cccc(Oc3ncc(Cl)cn3)c12 [Compound 1.067] | 4 (4=61-80%) | 4 (4=61-80%) | 1 (1=0-20%) | 3 (3=41-60%) | – | 3 (3=41-60%) | 1 (1=0-20%) | 2 (2=21-40%)
16 | FC(F)(F)c1ccc2c(Oc3ncc(Br)cn3)ccc(Br)c2n1 [Compound 1.034] | 1 (1=0-20%) | 1 (1=0-20%) | 1 (1=0-20%) | 1 (1=0-20%) | 1 (1=0-20%) | 1 (1=0-20%) | 1 (1=0-20%) | 1 (1=0-20%)
17 | Cc1ccc(Oc2ncc(Cl)cn2)c2cnc(C(F)(F)Cl)nc12 [Compound 1.048] | 2 (2=21-40%) | 2 (2=21-40%) | 1 (1=0-20%) | 1 (1=0-20%) | – | 1 (1=0-20%) | 1 (1=0-20%) | 1 (1=0-20%)
18 | Cc1ccc(Oc2ncc(Br)cn2)c2cnc(C(F)F)nc12 [Compound 1.023] | 2 (2=21-40%) | 3 (3=41-60%) | 1 (1=0-20%) | 1 (1=0-20%) | 2 (2=21-40%) | 1 (1=0-20%) | 1 (1=0-20%) | 1 (1=0-20%)
19 | FC(F)(F)c1ncc2c(Oc3ncc(C4CC4)cn3)cccc2n1 [Compound 1.012] | 1 (1=0-20%) | 1 (1=0-20%) | 1 (1=0-20%) | 1 (1=0-20%) | 1 (1=0-20%) | 1 (1=0-20%) | 1 (1=0-20%) | 1 (1=0-20%)
